Reference: article PMC12833730, “Discovery of a First‐in‐Class Covalent Allosteric SHP1 Inhibitor with Immunotherapeutic Activity” (Angewandte Chemie (International Ed. in English), 2025)
Read-outs that look alike come from different tables or passages of the source.

Key:
[1] = tested on: MC38 tumor immune infiltrates; assay: Flow cytometry of MC38 tumor immune infiltrates; format: in vivo, C57BL/6 mice; details: MC38 tumors
Method: Figure 5 M029 inhibits syngeneic MC38 tumor growth by promoting infiltration and activation of both T cells and NK cells in the tumor microenvironment. […] This T cell activation was further supported by i) the increased effector CD8^+ population in the tumor microenvironment. […] Statistical analyses were performed with Graphpad Prism software 10.4.2 through the student t test or the one‐way ANOVA test using Turkey post‐hoc comparison. *p < 0.05, **p < 0.01, ***p < 0.001, and ****p < 0.0001 were considered significant. Figures are plotted as average ± standard error of the mean (SEM).
To elucidate the mechanism by which M029 elicits its antitumor activity, we analyzed the immune cell population within the tumor samples. […] This observation is in line with earlier reports that SHP1 activity contributes to LAIR1‐mediated T cell exhaustion.^[ [91] ^]
For immune cell profiling in the tumor microenvironment, tumor samples were first reduced to single-cell suspensions by compressing the tumors through a 70 µm filter (Falcon, #352350) into cold 1× PBS supplemented with 5 mM EDTA using the plunger of a syringe (HSW, #4010-200V0). Samples were strained through a second filter and then re-suspended in cold blocking buffer made of 5% BSA, 0.5 mM EDTA, and a 1:1000 dilution of CD16/32. Samples were then incubated with following fluorophore-conjugated antibodies. CD4-488 (Biolegend #100423), CD8a-PE (Biolegend #100708), CD45-PeCy7 (Biolegend #103114), CD25-BV605 (Biolegend #102035), CD44-647 (Biolegend #103039), CD19-488 (Biolegend #115524), NK1.1-647 (Biolegend #108719), CD3-PeCy5 (Biolegend #100273), CD8-BV711 (Biolegend #100747), CD4-PeCy5 (Biolegend #100409), CD69-FITC (Biolegend #104505), FoxP3-488 (Biolegend #126405), Perforin-APC (Biolegend #154303), CD62L-BV605 (Biolegend #104437), TIM3-PerCP/Cy5.5 (Biolegend #134011), PD1-647 (Biolegend #109118), CD11b-BV711 (Biolegend #101241), CD206-FITC (Biolegend #141704), F4/80-647 (Biolegend #123122), CD86-PE (Biolegend #159203), CD11c-BV421 (Biolegend #117329), Ly6G-488 (Biolegend #127625), CD11b-APC (Biolegend #101211), Ly6C-PE (Biolegend #128007), F4/80-BV711 (Biolegend #123147), IL2-BV421 (Biolegend #503825), IFNγ-BV605 (Biolegend #505839), TNFα-APC (Biolegend #506307). The following antibodies were used for depletion studies: anti-CD8α (BioXCell #BE0061) and anti-NK1.1 (BioXCell #BE0036). Samples were incubated with antibodies at a 1:600 dilution in blocking buffer on ice for two hours. After staining, samples were washed and re-suspended in 5% BSA, 0.5 mM EDTA solution, then added to a 5 mL polystyrene tube for analysis (Falcon, #352235). Sample data was acquired using a BD LSRFortessa Cell Analyzer, and results were analyzed using FlowJo.

SHP1 = target: T1, SHP1 (Homo sapiens, UniProt P29350); assay: IC50 after 10-min/60-min preincubation, DiFMUP phosphatase assay; format: biochemical
T1 construct: SHP1, residues 245-543; made in house; host or cells: E. coli BL21(DE3)
Source text: The PTP‐catalyzed reaction involves a nucleophilic attack by the conserved active site Cys side chain on the phosphorus atom of phosphotyrosine in the substrate.^[ [53] ^] As such, the PTPs could serve as prime targets for covalent inhibition. Previously described activity‐based probes or covalent ligands for the PTPs are either phosphotyrosine isosteres or thiol‐reactive compounds that covalently modify the active site residues (including the catalytic Cys) and lack sufficient isozyme specificity.^[ [54], [55], [56], [57], [58], [59], [60], [61] ^] Inspired by the resurgence in covalent inhibitors for difficult drug targets, we set out to discover covalent SHP1 inhibitors by screening for electrophilic fragments that bind covalently to SHP1. This strategy is increasingly utilized to identify novel ligands for a target of interest.^[ [47], [62], [63] ^] We assembled a library of 4600 Cys reactive molecules from the Enamine covalent fragment collections containing 49.0% acrylamide, 38.1% chloroacetamide, 5.15% chloromethylketone, 5.20% activated nitrile, 2.10% epoxide, and 0.53% disulfide (Figure S1A). We carried out a high‐throughput biochemical fragment screening of this curated commercially available library against the SHP1 catalytic domain (residues 245–543). Each fragment (500 µM) was incubated with SHP1 (500 nM) for 30 min at room temperature before diluting the reaction 5.5‐fold with 24.45 mM para‐nitrophenyl phosphate (pNPP) to measure the residual PTP activity. This concentration of substrate was chosen to out‐compete any remaining fragment to reduce the inactivation of SHP1 during the enzymatic hydrolysis of pNPP. After a 2‐min incubation at 25 °C, the reaction was quenched by the addition of 5N NaOH, and the production of para‐nitrophenol was determined by absorbance at 405 nm. This assay format afforded a Z’‐factor of 0.70 (Figure S1B), indicating a robust screen to reliably identify hit molecules. To enhance the probability of discovering covalent ligands with inherent preference for SHP1, we also counter‐screened the same library against SHP2, the closest homolog of SHP1, and two other widely studied PTPs, PTP1B and PTPN22 (also called LYP). […] Among these, 31 were repurchased based on their observed preference for SHP1 and structural diversity, 11 of which were confirmed as potential covalent inhibitors for SHP1 based on the time dependency of their half‐maximal inhibition concentration (IC50) values determined with a 10‐min and 60‐min preincubation time, respectively (Table 1).
To further confirm the time-dependent inhibition and determine the IC50 of acquired hits, repurchased compounds from Enamine were serially diluted in a 96-well plate, followed by the addition of proteins at 200 nM. After 10-minute and 60-minute preincubation, 2 µL of the mixture was transferred into 100 µM 6,8-Difluoro-4-Methylumbelliferyl Phosphate (DiFMUP, Invitrogen, cat# D6567) at a final volume of 200 µL. The reaction was allowed to proceed for 5 minutes and quenched by the addition of 40 µl of a 160 µM solution of bpV(Phen) (Sigma-Aldrich, cat# SML0889). The fluorescence signal was measured using a CLARIOstar Plus Microplate Spectrophotometer (BMG Labtech) using excitation and emission wavelengths of 340 nm and 450 nm, respectively. Data were fitted using Prism GraphPad 10.1.1.

T1 sequence (P29350 245-543): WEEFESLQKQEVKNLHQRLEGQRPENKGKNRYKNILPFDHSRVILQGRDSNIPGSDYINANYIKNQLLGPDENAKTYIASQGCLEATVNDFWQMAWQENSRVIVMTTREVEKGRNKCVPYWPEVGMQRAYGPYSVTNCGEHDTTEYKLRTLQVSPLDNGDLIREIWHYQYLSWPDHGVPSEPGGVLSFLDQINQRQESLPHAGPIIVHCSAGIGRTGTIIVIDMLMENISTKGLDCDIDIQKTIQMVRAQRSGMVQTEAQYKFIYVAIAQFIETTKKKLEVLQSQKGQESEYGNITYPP

| IC50 (SHP1; 10-min preincubation, purchased hits, read-out: SHP1 IC50, 10 min) [µM] | IC50 (SHP1; 60-min preincubation, purchased hits, read-out: SHP1 IC50, 60 min) [µM] | selectivity for SHP1 over SHP2, PTP1B, and PTPN22 (SHP1; from IC50 values) [fold] | IC50 (SHP1; resynthesized compound, 10 min preincubation, read-out: SHP1 IC50, 10 min preincubation) [µM] | IC50 (SHP1; resynthesized compound, 60 min preincubation, read-out: SHP1 IC50, 60 min preincubation) [µM] | Structure (SMILES) | late exhaustion T cells (PD1+TIM3+) [1] | pre-exhausted PD1+TIM3− T cells [1] | activation marker CD25 on infiltrating CD8+ T cells ([1]; 25 mg/kg) | activation of tumor-infiltrating NK cells (CD69) ([1]; 25 mg/kg) | cytotoxicity marker perforin on infiltrating CD8+ T cells ([1]; 25 mg/kg) | effector markers CD44+CD62L− on infiltrating CD8+ T cells ([1]; 25 mg/kg) | infiltration of cytotoxic CD8+ T cells ([1]; 25 mg/kg) | increase of CD3+ T cells in tumor ([1]; 25 mg/kg, vs control) [%] | increase of NK1.1+ NK cells in tumor ([1]; 25 mg/kg, vs control) [%] | selectivity over a large panel of mammalian PTPs (SHP1; 60-min preincubation IC50 values, incl. SHP2) [fold] | IC50 (SHP1; 60-min preincubation, read-out: 60 min IC50, SHP1) [µM] |
| --- | --- | --- | --- | --- | --- | --- | --- | --- | --- | --- | --- | --- | --- | --- | --- | --- |
| – | – | – | – | – | N#Cc1ccsc1NS(=O)(=O)c1ccc(NC(=O)CCl)cc1 [M029, 2-Chloro-N-(4-(N-(3-cyanothiophen-2-yl)sulfamoyl)phenyl)acetamide] | a decline | increased | higher expression | significantly more activated | higher expression | higher expression | increased infiltration | ~33 | ~100 | > 22.4 | 2.6 ± 0.5 |
| 99.1 | 17.5 | > 11 | 118 ± 8.3 | 25.2 ± 1.6 | O=C(CCl)Nc1ccc(S(=O)(=O)Nc2nccs2)cc1 [Z57117023, 2-chloro-N-(4-(N-(thiazol-2-yl)sulfamoyl)phenyl)acetamide] | – | – | – | – | – | – | – | – | – | – | – |
